Data on five compounds can be found in PMC5878144 (Journal of controlled release : official journal of the …, 2018).

Where two headings read alike, the source gives them in different places.

For data set [1] the following is noted: cited from earlier work.
Data set [2] is described as follows: TLC-ART101 mechanism-based pharmacokinetic. Conditions: for k21, lymphatic entry rate constant, fast pathway / k31, lymphatic entry rate constant, intermediate pathway / k41, lymphatic entry rate constant, slow pathway / tlag2, lymphatic transit lag time, intermediate pathway / tlag1, lymphatic transit lag time, fast pathway / V5_DcNP, apparent volume of distribution of DcNP-associated ARV / k75, rate constant for release of free ARV from DcNPs in plasma / tlag3, lymphatic transit lag time, slow pathway: TLC-ART101; for k21, lymphatic entry rate constant, fast pathway / k31, lymphatic entry rate constant, intermediate pathway / k41, lymphatic entry rate constant, slow pathway: fixed after manual adjustment.

Data set [3] is described as follows: Free ARV compartmental models. The format is in vivo, Macaca nemestrina. Conditions: for CL/F: calculated from population PK parameters; for Vd/F / half-life / k el: male, monkey, sc.
Data set [4] is described as follows: Equilibrium dialysis of DcNP-associated versus free drug. Conditions: TLC-ART101, equilibrium dialysis, 6-8 kDa cut-off membrane. The format is physicochemical.
Data set [5] is classed as in vivo, Macaca nemestrina.
A further data set in a line: in vivo. To be noted: macaque, sc.
The conditions of data set [6]: rat, in vivo; cited from earlier work.
The mark [7] stands for this setting: TLC-ART101, single SC dose, macaques, geometric mean (%CV), N=4.
[8] abbreviates: parameter value (%CV), listed as TLC-ART101 Ritonavir.
[9] abbreviates: TLC-ART101 model, free submodel, parameter value (%CV).
Where [10] appears, read: Free formulation, parameter value (%CV).
The mark [11] stands for this setting: Free formulation, single SC dose, macaques, geometric mean (%CV), N=3.
Where [12] appears, read: parameter value (%CV), listed as TLC-ART101 Tenofovir.
Setting [13] is: TLC-ART101 model, free submodel.

As usually defined, the Vd/F is the apparent distribution volume after extravascular dosing. In general, half-life refers to the time in which the quantity being followed falls by half. The low end stands for fast loss, the high end for slow loss. What is called AUC(0-t) is the area under the concentration-time curve up to a stated or last time point. Low values mean less exposure, high ones more exposure. Take `CC(C)c1nc(CN(C)C(=O)N[C@H](C(=O)N[C@@H](Cc2ccccc2)C[C@H](O)[C@H](Cc2ccccc2)NC(=O)OCc2cncs2)C(C)C)cs1` [Ritonavir]: in data set [1] (setting [7]), the “AUC0-336h, area under the plasma drug concentration-time curve” value is listed as 4.80 (57) hr•μg/mL and the “Terminal t1/2” value is on record as 44.06 (46) hr. Besides, in data set [2], the “k21, lymphatic entry rate constant, fast pathway” value is listed as 0.2361 (-) 1/hr; the “k31, lymphatic entry rate constant, intermediate pathway” value is on record as 0.1881 (-) 1/hr; the “k41, lymphatic entry rate constant, slow pathway” value is given as 0.0198 (-) 1/hr. The “tlag2, lymphatic transit lag time, intermediate pathway” value in data set [2] (parameter value (%CV)) is recorded as 38.83 (13) hr. The “tlag1, lymphatic transit lag time, fast pathway” value (“tlag1 … fast pathway” below) in data set [2] (parameter value (%CV), listed as RTV) was ~2 h. In data set [2] (setting [8]), the “V5_DcNP, apparent volume of distribution of DcNP-associated ARV” value was 10.09 (27) L/kg; the “k75, rate constant for release of free ARV from DcNPs in plasma” value was 0.4336 (5) 1/hr; the “tlag1 … fast pathway” value is 2.13 (51) hr; the “tlag3, lymphatic transit lag time, slow pathway” value is reported as 181.87 (11) hr. In data set [2] (setting [9]), the V7_Free is 67.94 (3) L/kg and the “k07, clearance rate constant of free ARV from central compartment” value is reported as 0.0962 (4) 1/hr. In addition, in data set [3] (Free formulation, listed as Free Ritonavir), the CL/F is 3.90 L/[hr•kg]. Also, the CL/F in data set [3] (Free formulation, listed as RTV) was ~4 L/[hr•kg]. Further, the “k21, absorption rate constant” value in data set [3] (setting [10]) is 0.6242 (29) 1/hr. For the same compound, in data set [3] (plasma), the Vd/F came out at 42.4 L/kg, the half-life was 7.54 h and the k el is 2.55e-05 s⁻¹. In addition, in data set [4], the “mean fraction of DcNP-associated drug” value was 91.1%. Further, the “CL/F, apparent total clearance” value in data set [5] (setting [11]) is 4.23 (15) L/[hr•kg]. The “Terminal t1/2” value in data set [5] (Free formulation, single SC dose, macaques, geometric mean (%CV), N=3, listed as Ritonavir (RTV)) is recorded as 7.99 (38) hr. In addition, the “CL/F, apparent total clearance” value in data set [5] (setting [7]) was 1.43 (56) L/[hr•kg]. This compound also registered an AUC(0-t) in data set [5] (male, monkey, plasma, sc) of 1370 ng·h/mL. In “in vivo”, this compound came in with a Kp of 7.4.

For the compound `COc1cccc2c1C(=O)c1c(O)c3c(c(O)c1C2=O)C[C@@](O)(C(=O)CO)C[C@@H]3O[C@H]1C[C@H](N)[C@H](O)[C@H](C)O1` [doxorubicin], in data set [6], the “% of SC dose recovered in the blood” value is given as 64-74% and the “% of SC dose recovered in the lymph” value is reported as 0.063-2%.

For `CN(Cc1cnc2nc(N)nc(N)c2n1)c1ccc(C(=O)N[C@@H](CCC(=O)O)C(=O)O)cc1` [methotrexate], in data set [6], the “% of SC dose recovered in the blood” value is reported as 64-74% and the “% of SC dose recovered in the lymph” value is listed as 0.063-2%.

`Cc1cccc(C)c1OCC(=O)N[C@@H](Cc1ccccc1)[C@@H](O)C[C@H](Cc1ccccc1)NC(=O)[C@H](C(C)C)N1CCCNC1=O` [Lopinavir]: the “Terminal t1/2” value in data set [1] (monkey, in vivo, sc) is recorded as 476.94 (173) hr; in data set [5] (Free formulation, single SC dose, macaques, geometric mean (%CV), N=3, listed as Lopinavir (LPV)), 8.65 (28) hr. Besides, the CL/F in data set [3] (Free formulation, listed as Free Lopinavir) was 4.24 L/[hr•kg]; in data set [3] (Free formulation, listed as LPV) it was ~4 L/[hr•kg]. For the same compound, in data set [3] (setting [10]), the “k21, absorption rate constant” value is 0.7120 (20) 1/hr. This compound also had a half-life in data set [3] (plasma) of 8.85 h. Further, in data set [3] (plasma), the k el is 2.18e-05 s⁻¹. The “mean fraction of DcNP-associated drug” value in data set [4] came out at 92.2%. In addition, the “CL/F, apparent total clearance” value in data set [5] (setting [11]) was 4.64 (14) L/[hr•kg]; in data set [5] (setting [7]), 0.85 (85) L/[hr•kg]. For the same compound, the AUC(0-t) in data set [5] (male, monkey, plasma, sc) is 4350 ng·h/mL.

The term Tmax denotes the time at which the peak concentration occurs. On to `C[C@H](Cn1cnc2c(N)ncnc21)OCP(=O)(O)O` [Tenofovir], for which, in data set [1] (setting [7]), the “Terminal t1/2” value is listed as 65.33 (11) hr. Besides, the “AUC0-336h, area under the plasma drug concentration-time curve” value in data set [1] (in vivo, sc) is listed as 416.55 (15) hr•μg/mL. Moreover, in data set [2], the “k21, lymphatic entry rate constant, fast pathway” value is given as 0.1300 (-) 1/hr; the “k31, lymphatic entry rate constant, intermediate pathway” value is 0.1588 (-) 1/hr; the “k41, lymphatic entry rate constant, slow pathway” value is 0.1779 (-) 1/hr. Moreover, in data set [2] (parameter value (%CV)), the “V5_DcNP, apparent volume of distribution of DcNP-associated ARV” value is recorded as 0.17 (22) L/kg and the “tlag2, lymphatic transit lag time, intermediate pathway” value was 24.04 (19) hr. Also, the “tlag1 … fast pathway” value in data set [2] (parameter value (%CV), listed as TFV) amounted to 0.1 h. Besides, in data set [2] (setting [12]), the “k75, rate constant for release of free ARV from DcNPs in plasma” value was 0.0164 (15) 1/hr; the “tlag1 … fast pathway” value is on record as 0.10 (-) hr; the “tlag3, lymphatic transit lag time, slow pathway” value is on record as 122.06 (3) hr. In addition, in data set [2] (setting [13]), the “k76, absorption rate constant of free ARV from SC site” value is recorded as 1.4201 (-) 1/hr and the k87 was 0.0298 (-) 1/hr. Besides, in data set [2] (setting [9]), the V7_Free is 1.66 (18) L/kg; the “k07, clearance rate constant of free ARV from central compartment” value was 0.5824 (2) 1/hr; the k78 was 0.0738 (0) 1/hr. Moreover, the “k23, peripheral to central exchange rate constant” value in data set [3] (Free formulation, 2CM) is 0.0738 (-) 1/hr. Moreover, the Vβ/F in data set [3] (Free formulation, 2CM, secondary parameter) is reported as 8.65 L/kg. Besides, the “k32, central to peripheral exchange rate constant” value in data set [3] (Free formulation, 2CM, parameter value (%CV)) was 0.0298 (0) 1/hr. Besides, the CL/F in data set [3] (Free formulation) is 0.60 L/[hr•kg]. In data set [3] (setting [10]), the “k21, absorption rate constant” value is 2.3423 (38) 1/hr. Moreover, the k el in data set [3] (in vivo) was 0.000164 s⁻¹. The same compound displayed a Vd/F in data set [3] (in vivo, 10.6 mg/kg) of 1.44 L/kg. The “mean fraction of DcNP-associated drug” value in data set [4] stood at 11.2%. Moreover, in data set [5] (setting [11]), the “CL/F, apparent total clearance” value was 0.72 (4) L/[hr•kg] and the “MBRT0-24h, mean body residence time” value was 2.61 (12) hr. Also, in data set [5] (setting [7]), the “CL/F, apparent total clearance” value is 0.02 (15) L/[hr•kg] and the “MBRT0-336h, mean body residence time” value is reported as 102.68 (7) hr. In data set [5] (free formulation), the “MBRT0-24h fold shorter than those of free LPV and RTV” value is ~5 fold. In addition, the “plasma level as % of peak” value in data set [5] (free formulation, by 10 hr) is recorded as ~1%. In data set [5] (male, monkey, plasma, sc), the AUC(0-t) is 14400 ng·h/mL and the Tmax is ~1 h. Further, the half-life in data set [5] (male, monkey, plasma, sc, Terminal t1/2, Free formulation, single SC dose, macaques, geometric mean (%CV), N=3) is 8.01 h. Moreover, the Kp in “in vivo” turned out to be 3.01.
